{"source": "patent US20140271649A1", "about": "“METHODS AND COMPOSITIONS FOR INHIBITING STAPHYLOCOCCUS AGGLUTINATION IN BLOOD” (The University of Chicago, priority 2011, published 2014)", "key": {"S. aureus MW2 [1]": {"system": "S. aureus MW2", "test": "Agglutination assay in plasma, MRSA MW2", "assay_type": "cell-based, Staphylococcus aureus", "settings": "argatroban (1 mg/mL), OD550 after two hours"}, "vWbp-prothrombin": {"target": "T1, vWbp-prothrombin (Homo sapiens, UniProt P00734)", "T1 construct": "purchased Innovative Research (prothrombin); host or cells: vWbp made in house in E. coli BL21(DE3), Ni-NTA purified", "test": "Coagulase activity: fibrinogen to fibrin conversion by vWbp-prothrombin", "assay_type": "biochemical, S. aureus / human", "settings": "200 ng argatroban, absorbance at 450 nm", "procedure": "(§1) Coagulase activity. Purified recombinant Coa or vWbp (100 nM) were mixed with human prothrombin (Innovative Research) in 1% sodium-citrate/PBS. After an initial reading, fibrinogen (3 μM) (Sigma) was added and conversion of fibrinogen to fibrin was measured as an increase in turbidity at 450 nm in a plate reader (BioTek) at 2.5 min intervals. As controls, the enzymatic activity of human alpha-thrombin (Innovative Research) or prothombin alone were measured. Argatroban (200 ng, Novaplus) was added to reactions prior to the addition of fibrinogen."}, "S. aureus N315 [2]": {"system": "S. aureus N315", "test": "Agglutination assay in plasma, MRSA N315", "assay_type": "cell-based, Staphylococcus aureus", "settings": "argatroban (1 mg/mL), OD550 after two hours"}, "Coa-prothrombin [3]": {"system": "Coa-prothrombin", "settings": "literature (Hijikata-Okunomiya and Kataoka, 2003; Vanassche et al., 2010); cited from earlier work"}, "human alpha-thrombin": {"target": "human alpha-thrombin (Homo sapiens, UniProt P00734)", "test": "Coagulase activity control: fibrinogen to fibrin conversion by thrombin", "assay_type": "biochemical", "settings": "200 ng argatroban, absorbance at 450 nm, compared to mock control", "procedure": "as §1"}, "S. aureus Newman [4]": {"system": "S. aureus Newman", "test": "Agglutination assay in plasma, S. aureus Newman", "assay_type": "cell-based, Staphylococcus aureus", "settings": "argatroban treatment, increasing concentrations", "procedure": "Agglutination assay. Overnight cultures of staphylococcal strains were washed in 1 mL 0.85% NaCl and suspended to a final concentration of OD600 4.0 in 1 mL. Bacteria were incubated with 1:500 Syto9 (Invitrogen) for 15 minutes, washed with 1 mL 0.85% NaCl, and suspended in 1 mL saline. Bacteria were mixed 1:1 with EDTA-chelated rabbit plasma (Becton, Dickinson) on a glass microscope slide and incubated for 15 minutes. Samples were viewed and images captured on an Olympus Provis microscope using a 40× objective. For quantification of agglutination, plasma and bacteria were inoculated onto polystyrene C-Chip disposable hemocytometer slides (IN-CYTO). […] For analysis, the largest aggregate in each field of view was outlined in ImageJ and the area of that aggregate measured. Mean area of S. aureus aggregates were determined and normalized by subtracting Newman in saline without plasma from all values. Percent agglutination was calculated by normalizing all mean intensity values to S. aureus Newman in plasma. […] Fold change in agglutination was calculated as the ratio of mean bacterial aggregation area in the presence of antibody compared to control. Statistical significance, P<0.05, was determined by one way analysis of variance (ANOVA), with Dunnett's multiple comparison analysis for post-hoc testing using GraphPad Prism software. […]"}, "Coa-prothrombin [5]": {"system": "Coa-prothrombin", "test": "Coagulase activity: fibrinogen to fibrin conversion by Coa-prothrombin", "assay_type": "biochemical, S. aureus / human", "settings": "200 ng argatroban, absorbance at 450 nm", "procedure": "as §1"}, "clfA mutant S. aureus": {"system": "clfA mutant S. aureus", "test": "Mouse sepsis survival, clfA mutant challenge", "assay_type": "in vivo, BALB/c mice", "procedure": "(§2) Sepsis. Overnight cultures of staphylococcal strains were diluted 1:100 into fresh TSB and grown until they reached an OD600 of 0.4. Bacteria were centrifuged at 7,000×g, washed, and suspended in the one-tenth volume of PBS. Six week-old female BALB/c mice (n=15) (Charles River) were injected retro-orbitally with 1×10^8 CFU (S. aureus Newman, MW2, and N315) or 5×10^7 CFU (S. aureus USA300) suspensions in 100 μl of PBS. Mice were monitored for survival over 10 days. To enumerate staphylococcal load in heart tissue twelve hours post-infection, mice were euthanized by CO2 asphyxyation and hearts were removed during necropsy. Heart tissue was homogenized in PBS, 0.1% Triton X-100. Serial dilutions of homogenate were spread on TSA and incubated for colony formation. The bacterial load in organ tissue was analyzed in pairwise comparisons between wild-type and mutant strains with the unpaired two-tailed Student's t-test. For histopathology, mice infected with S. aureus were euthanized 12 hours after infection. Hearts were removed during necropsy and fixed in 10% formalin for 24 hours at room temperature. […] Data were analyzed in pairwise comparisons between wild-type and mutant strains with the unpaired two-tailed Student's t-test. […]\n(§3) Dabigatran etexilate treatment. […] Thrombin time was measured on a STA-R analyzer (Diagnostica Stago)."}, "S. aureus Newman [6]": {"system": "S. aureus Newman", "test": "Mouse sepsis survival, S. aureus Newman challenge", "assay_type": "in vivo, BALB/c mice", "settings": "10 mg/kg i.p. in 12 hour intervals, mock treated died within 60 hours"}, "S. aureus USA300 LAC": {"system": "S. aureus USA300 LAC", "test": "Mouse sepsis survival, S. aureus USA300 LAC challenge", "assay_type": "in vivo, BALB/c mice", "settings": "10 mg/kg i.p. every 12 h; lethal dose S. aureus USA300 LAC; vs mock", "procedure": "as §2, §3"}, "S. aureus coa/vwb mutant": {"system": "S. aureus coa/vwb mutant", "test": "Mouse sepsis survival, S. aureus coa/vwb mutant challenge", "assay_type": "in vivo, BALB/c mice", "settings": "10 mg/kg i.p. every 12 h, vs mock", "procedure": "as §2, §3"}, "clfA (pclfA) variant": {"system": "clfA (pclfA) variant", "test": "Mouse sepsis survival, clfA (pclfA) variant challenge", "assay_type": "in vivo, BALB/c mice", "procedure": "as §2, §3"}, "S. aureus Newman [7]": {"system": "S. aureus Newman", "test": "Heart tissue histopathology 12 hours after S. aureus Newman infection", "assay_type": "in vivo, BALB/c mice"}, "S. aureus N315 [8]": {"system": "S. aureus N315", "test": "Mouse sepsis survival, MRSA N315 challenge", "assay_type": "in vivo, BALB/c mice", "settings": "lethal challenge S. aureus N315; Dbg 10 mg/kg, antibodies 5 mg/kg"}, "S. aureus MW2 [9]": {"system": "S. aureus MW2", "test": "Mouse sepsis survival, MRSA MW2 challenge", "assay_type": "in vivo, BALB/c mice", "settings": "lethal challenge S. aureus MW2; Dbg 10 mg/kg, antibodies 5 mg/kg"}, "[10]": {"settings": "in vivo, sc; cited from earlier work"}, "[11]": {"test": "Serum IgG after active immunization (ELISA)", "assay_type": "in vivo, BALB/c mice", "settings": "50 μg protein in CFA, boost in IFA"}}}
{"molecule": "CC1CNc2c(cccc2S(=O)(=O)N[C@@H](CCCNC(=N)N)C(=O)N2CC[C@@H](C)C[C@@H]2C(=O)O)C1", "note": "(some centres unmarked) [argatroban]", "values": [{"measurement": "agglutination of S. aureus MW2 in EDTA-plasma", "setting": "S. aureus MW2 [1]", "value": "inhibited"}, {"measurement": "conversion of fibrinogen to fibrin by vWb-prothrombin", "setting": "vWbp-prothrombin", "value": "blocked"}, {"measurement": "agglutination of S. aureus N315 in EDTA-plasma", "setting": "S. aureus N315 [2]", "value": "inhibited"}, {"measurement": "inhibition of the proteolytically active Coa-prothrombin complex", "setting": "Coa-prothrombin [3]", "value": "inhibit"}, {"measurement": "conversion of fibrinogen to fibrin by thrombin", "setting": "human alpha-thrombin", "value": "blocked"}, {"measurement": "agglutination of S. aureus Newman in plasma", "setting": "S. aureus Newman [4]", "value": "interfered with the agglutination"}, {"measurement": "conversion of fibrinogen to fibrin by Coa-prothrombin", "setting": "Coa-prothrombin [5]", "value": "blocked"}]}
{"molecule": "CCCCCCOC(=O)N=C(N)c1ccc(NCc2nc3cc(C(=O)N(CCC(=O)OCC)c4ccccn4)ccc3n2C)cc1", "note": "[dabigatran-etexilate]", "values": [{"measurement": "survival and time-to-death", "setting": "clfA mutant S. aureus; clfA mutant challenge compared to control strain harboring pclfA", "value": "increased the survival and time-to-death"}, {"measurement": "disease outcome", "setting": "clfA mutant S. aureus; clfA mutant challenge compared to mock treated mice", "value": "further improved the disease outcome"}, {"measurement": "survival after challenge", "setting": "S. aureus Newman [6]", "value": "up to 132 hours"}, {"measurement": "survival of septic mice", "setting": "S. aureus USA300 LAC", "value": "prolonged the survival"}, {"measurement": "survival or time-to-death", "setting": "S. aureus coa/vwb mutant", "value": "no effect"}, {"measurement": "benefit from treatment (time-to-death)", "setting": "clfA (pclfA) variant", "value": "benefited"}, {"measurement": "agglutination of staphylococcus in heart tissue", "setting": "S. aureus Newman [7]; dabigatran-etexilate treatment, S. aureus Newman, 12 hours, histopathology", "value": "reduced agglutination"}]}
{"molecule": "[H]/N=C(/N)c1ccc(NCc2nc3cc(C(=O)N(CCC(=O)O)c4ccccn4)ccc3n2C)cc1", "note": "[dabigatran]", "values": [{"measurement": "time-to-death / survival during sepsis", "setting": "S. aureus N315 [8]", "value": "did not prolong the survival"}, {"measurement": "time-to-death / survival during sepsis", "setting": "S. aureus MW2 [9]", "value": "did not prolong the survival"}, {"measurement": "inhibition of the proteolytically active Coa-prothrombin complex", "setting": "Coa-prothrombin [3]", "value": "inhibit"}]}
{"molecule": "N=C(N)c1ccc(CNC(=O)[C@@H]2CCN2C(=O)[C@H](NCC(=O)O)C2CCCCC2)cc1", "note": "[melagatran]", "values": [{"measurement": "dose at which toxicity began", "setting": "[10]", "value": "over 5 mg"}]}
{"molecule": "ClfA: purified recombinant S. aureus clumping factor A; used in binding assay and as antigen for active immunization", "values": [{"measurement": "specific IgG antibodies after active immunization", "setting": "[11]", "value": "raised specific IgG antibodies"}, {"measurement": "frequency of heart lesions", "setting": "S. aureus Newman [7]; active immunization, challenged twelve hours with wild-type S. aureus Newman", "value": "reduced the frequency of heart lesions"}]}
